# Measured values reported in US8901105B2, “Prodrug derivatives of (E)-N-methyl-N-((3-M ethylbenzofuran-2-yl)methyl)-3-(7-oxo-5,6,7,8-tetrahydro-1,8-naphthyridin-3-yl)acrylamide” (Affinium Pharmaceuticals, Inc., priority 2012, dated 2014).
# Counter-ions that a name gives are not always drawn. Like-named read-outs stand apart in the source and are kept apart here.
# Tests used:
# [1] = Solid-state stability (HPLC % area after storage); format: physicochemical
# Description: (§1) Various compounds disclosed herein have been placed on long-term solid-state stability protocol. The compounds were stored in glass vials closed with PTFE lined caps at 30° C./65% RH, 40° C./75% RH, 50° C. and 60° C. (ambient humidity). The results of the study after 4 weeks are shown in Table B1 and after 3 months in Table B2. Appearance and purity analysis were conducted using HPLC and XPRD. The HPLC analyses were conducted using standard equipment such as a Agilent HP1100 HPLC (Station ID: LZPES HPLC 04) with YMC-Pack ODS-AQ sub 3 μm, 150×4.6 mm
# [2] = Photostability of solid salts; format: physicochemical
# [3] = Stability to gamma irradiation; format: physicochemical
# Source text: There was no change in appearance and it remained partially crystalline over 1 month at all storage conditions.
# [4] = XRPD crystal form after storage; format: physicochemical; details: after 3 months at all conditions
# Description: as §1, with “mm Samples were prepared for XRPD by sprinkling ˜20 mg onto a Si wafer zero background plate and pressing the material flat to ensure the surface is smooth and level. The samples were analyzed according the equipment parameters below.” for “mm”
# [5] = Solution stability in water for injection (WFI); format: physicochemical
# [6] = Solution stability in 5% dextrose in water (D5W); format: physicochemical
# [7] = system: Enterococcus faecalis; assay: Broth microdilution MIC; format: cell-based
# Description: (§2) Bacterial Isolates. Organisms tested in this study are listed in Table P. Clinical isolates consisted of 5 Staphylococcus aureus (MSSA), 3 Staphylococcus aureus (HA-MRSA), 2 Staphylococcus aureus (CA-MRSA), 2 Enterococcus faecalis (VSE), 2 Streptococcus pyogenes, and 2 Escherichia coli (susceptible to most antibiotics). S. aureus ATCC 29213, E. faecalis ATCC 29212, S. pneumoniae ATCC 49619, and E. coli ATCC 25922 were tested for the purposes of quality control.
# (§3) Minimal Inhibitory Concentrations (MIC) values against the selected isolates were determined using the reference broth microdilution method according to the Clinical Laboratory Standards Institute (CLSI) guidelines.
# (§4) The MIC was read and recorded as the lowest concentration of drug that inhibited visible growth of the organism.
# [8] = system: Escherichia coli; assay: Broth microdilution MIC; format: cell-based; details: Escherichia coli, read-out: MIC
# Description: as §2, §3, §4
# [9] = system: Streptococcus pneumoniae; assay: Broth microdilution MIC; format: cell-based; details: ATCC49619, S. pneumoniae ATCC 49619, read-out: MIC
# Description: as §2, §3, §4
# [10] = system: Streptococcus pyogenes; assay: Broth microdilution MIC; format: cell-based
# Description: as §2, §3, §4
# [11] = 1 mg/mL solution, 5° C., 4 hours
# [12] = 1 mg/mL solution, 5° C., 24 hours
# [13] = 1 mg/mL solution, 5° C., 48 hours
# [14] = 1 mg/mL solution, −20° C., 48 hours
# [15] = 25 mg/mL solution, 5° C., 4 hours
# [16] = 25 mg/mL solution, 5° C., 24 hours
# [17] = 25 mg/mL solution, 5° C., 48 hours
# [18] = 25 mg/mL solution, RT, 24 hours
# [19] = 25 mg/mL solution, RT, 48 hours
# [20] = 25 mg/mL solution, −20° C., 48 hours
smiles,measurement,setting,value
"Cc1c(CN(C)C(=O)/C=C/c2cnc3c(c2)CCC(=O)N3COP(=O)(O)O)oc2ccccc12 [Compound 10, (E)-6-[(N-methyl-((3-methylbenzofuran-2-yl)methyl)amino)-3-oxoprop-1-en-1-yl)-2-oxo-3,4-dihydro-1,8-naphthyridin-1(2H)-yl]methylphosphate bis-ethanolammonium salt]",Solid-state stability % Area,"[1]; 3 months, 30° C./65% RH",98.61 % Area
same,Solid-state stability % Area,"[1]; 3 months, 40° C./75% RH",92.75 % Area
same,Solid-state stability % Area,"[1]; 3 months, 50° C./ambient humidity",99.04 % Area
same,Solid-state stability % Area,"[1]; 3 months, Control (ambient lab conditions protected from light)",98.9 % Area
same,Solid-state stability % Area,"[1]; 4 weeks, 30° C./65% RH",98.5 % Area
same,Solid-state stability % Area,"[1]; 4 weeks, 40° C./75% RH",98.2 % Area
same,Solid-state stability % Area,"[1]; 4 weeks, 50° C./ambient humidity",99.3 % Area
same,Solid-state stability % Area,"[1]; 4 weeks, 60° C./ambient humidity",98.7 % Area
same,Solid-state stability % Area,"[1]; 4 weeks, Control (ambient lab conditions protected from light)",98.9 % Area
same,physical and chemical stability,"[1]; over 3 months at 30° C./65% RH and 50° C., closed vials, light protected",physically and chemically stable
same,Control % Area (Table C),[2]; control sample at ambient lab conditions protected from light,98.9 % Area
same,Photo-stability % Area,[2]; exposed to 60% of ICH minimum,97.7 % Area
same,stability to gamma irradiation exposure,[3]; 28.6-30.9 kGy,stable to gamma irradiation
same,stability to gamma irradiation,"[3]; crystalline, 25 to 31 kGy",stable to gamma irradiation
same,change in crystal form (XRPD),[4],no change in crystal form
same,Solution stability,[5]; [11],0.96 mg/mL
same,Solution stability % Area,[5]; [11],99.4 % Area
same,Solution stability,[5]; [12],0.94 mg/mL
same,Solution stability % Area,[5]; [12],98.1 % Area
same,Solution stability,[5]; [13],0.96 mg/mL
same,Solution stability % Area,[5]; [13],98.1 % Area
same,Solution stability,"[5]; 1 mg/mL solution, Initial",0.97 mg/mL
same,Solution stability % Area,"[5]; 1 mg/mL solution, Initial",99.4 % Area
same,Solution stability,"[5]; 1 mg/mL solution, RT, 4 hours",0.94 mg/mL
same,Solution stability % Area,"[5]; 1 mg/mL solution, RT, 4 hours",99.0 % Area
same,Solution stability,"[5]; 1 mg/mL solution, RT, 24 hours",0.92 mg/mL
same,Solution stability % Area,"[5]; 1 mg/mL solution, RT, 24 hours",95.5 % Area
same,Solution stability,"[5]; 1 mg/mL solution, RT, 48 hours",0.64 mg/mL
same,Solution stability % Area,"[5]; 1 mg/mL solution, RT, 48 hours",92.1 % Area
same,Solution stability,[5]; [14],0.96 mg/mL
same,Solution stability % Area,[5]; [14],99.3 % Area
same,Solution stability,[5]; [15],25.0 mg/mL
same,Solution stability % Area,[5]; [15],99.3 % Area
same,Solution stability,[5]; [16],24.4 mg/mL
same,Solution stability % Area,[5]; [16],98.6 % Area
same,Solution stability,[5]; [17],23.1 mg/mL
same,Solution stability % Area,[5]; [17],98.0 % Area
same,Solution stability,"[5]; 25 mg/mL solution, Initial",24.05 mg/mL
same,Solution stability % Area,"[5]; 25 mg/mL solution, Initial",99.5 % Area
same,Solution stability,"[5]; 25 mg/mL solution, RT, 4 hours",23.9 mg/mL
same,Solution stability % Area,"[5]; 25 mg/mL solution, RT, 4 hours",98.8 % Area
same,Solution stability,[5]; [18],22.5 mg/mL
same,Solution stability % Area,[5]; [18],95.2 % Area
same,Solution stability,[5]; [19],22.8 mg/mL
same,Solution stability % Area,[5]; [19],91.5 % Area
same,Solution stability,[5]; [20],24.4 mg/mL
same,Solution stability % Area,[5]; [20],99.2 % Area
same,Solution stability,[6]; [11],0.99 mg/mL
same,Solution stability % Area,[6]; [11],99.4 % Area
same,Solution stability,[6]; [12],0.99 mg/mL
same,Solution stability % Area,[6]; [12],98.8 % Area
same,Solution stability,[6]; [13],1.00 mg/mL
same,Solution stability % Area,[6]; [13],98.1 % Area
same,Solution stability,"[6]; 1 mg/mL solution, Initial",1.00 mg/mL
same,Solution stability % Area,"[6]; 1 mg/mL solution, Initial",99.5 % Area
same,Solution stability,"[6]; 1 mg/mL solution, RT, 4 hours",0.99 mg/mL
same,Solution stability % Area,"[6]; 1 mg/mL solution, RT, 4 hours",99 % Area
same,Solution stability,"[6]; 1 mg/mL solution, RT, 24 hours",0.96 mg/mL
same,Solution stability % Area,"[6]; 1 mg/mL solution, RT, 24 hours",96.1 % Area
same,Solution stability,"[6]; 1 mg/mL solution, RT, 48 hours",0.95 mg/mL
same,Solution stability % Area,"[6]; 1 mg/mL solution, RT, 48 hours",93.1 % Area
same,Solution stability,[6]; [14],0.99 mg/mL
same,Solution stability % Area,[6]; [14],99.3 % Area
same,Solution stability,[6]; [15],24.9 mg/mL
same,Solution stability % Area,[6]; [15],99.3 % Area
same,Solution stability,[6]; [16],24.5 mg/mL
same,Solution stability % Area,[6]; [16],98.7 % Area
same,Solution stability,[6]; [17],24.5 mg/mL
same,Solution stability % Area,[6]; [17],98.1 % Area
same,Solution stability,"[6]; 25 mg/mL solution, Initial",24.4 mg/mL
same,Solution stability % Area,"[6]; 25 mg/mL solution, Initial",99.6 % Area
same,Solution stability,"[6]; 25 mg/mL solution, RT, 4 hours",24 mg/mL
same,Solution stability % Area,"[6]; 25 mg/mL solution, RT, 4 hours",98.9 % Area
same,Solution stability,[6]; [18],23.8 mg/mL
same,Solution stability % Area,[6]; [18],95.6 % Area
same,Solution stability,[6]; [19],23 mg/mL
same,Solution stability % Area,[6]; [19],92.1 % Area
same,Solution stability,[6]; [20],24.6 mg/mL
same,Solution stability % Area,[6]; [20],99.3 % Area
same,MIC,"[7]; ATCC29212, E. faecalis ATCC 29212, read-out: MIC",> 16 µg/mL
same,MIC,"[7]; E. faecalis 4158, VSE, read-out: MIC",> 16 µg/mL
same,MIC,"[7]; E. faecalis 4212, VSE, read-out: MIC",> 16 µg/mL
same,MIC,"[8]; ATCC25922, E. coli ATCC 25922",> 16 µg/mL
same,MIC,[8]; E. coli 2214,> 16 µg/mL
same,MIC,[8]; E. coli 5255,> 16 µg/mL
same,MIC,[9],> 16 µg/mL
same,MIC,[10]; S. pyogenes 6528,>16 µg/mL
same,MIC,"[10]; Streptococcus pyogenes, S. pyogenes 6179, read-out: MIC",> 16 µg/mL
